The source of these data is paper PMC5675618, “Identification and validation of FGFR2 peptide for detection of early Barrett's neoplasia” (Oncotarget, 2017).

No end group written: not given here. Cy5.5 = near-infrared fluorophore Cy5.5

Series [1] relates to Barrett's neoplasia. The settings on record: topical to mucosal surface, clinic, ref [19], [20], cited from earlier work. Here is the method: An empiric peptide labeled with FITC was administered topically to the mucosal surface. Early neoplasia was detected with 94% specificity and 96% positive predictive value. Included in the analysis were 28 flat lesions (Paris 0-IIb) that were poorly visualized with white light. […] Peptides have high diversity, and can achieve high specificity with binding affinities on the ...

Series [2] concerns FGFR2b, AKT, ERK phosphorylation in QhTERT cells. The series is described as follows: Western blot, effect of peptide binding on cell signaling, QhTERT cells expressing FGFR2b. It counts as cell-based, human. The settings on record: 20 min. Here is the method:
(§1) QhTERT cells that overexpress either FGFR2b or FGFR2c were seeded in 12-well flat-bottom plates with 500 μL of serum-free medium for 16 hours. FGF1 (#2232-FA-025, R&D systems) was reconstituted to a concentration of 100 μg/mL using PBS, diluted with 0.1% bovine serum albumin, and added to the cells at final concentrations of 100 ng/mL for 20 min in separate wells. Heparin (# H3149-10KU, Sigma) with final concentration of 100 units/mL was also added to increase stability. In addition, peptides at concentrations of 5 and 100 μM were incubated for 20 min in separate wells. The cells were washed with PBS and lysed in RIPA buffer containing protease inhibitors (#11836170001, Roche, Basel, Switzerland). Lysates were separated by gel electrophoresis, transferred to polyvinylidene difluoride membranes (#ISEQ00010, Millipore), and detected by immunoblotting using an enhanced chemiluminescence system (#RPN2106, GE Healthcare). Anti-FGFR2 antibody (#SC122, Santa Cruz Biotechnology), anti-phospho-FGFR (#3471, Cell Signaling Technology), anti-AKT (#4691P, Cell Signaling Technology), anti-ERK1/2 (#4695P, Cell Signaling Technology), anti-phospho-AKT (pS473; #4060P, Cell Signaling Technology), anti-phospho-ERK1/2 (#4370P, Cell Signaling Technology), and anti-tubulin (#32–2600, Invitrogen) were used as per manufacturer's instructions.

Series [3] deals with FGFR2c, AKT, ERK phosphorylation in QhTERT cells. The series can be described thus: Western blot, effect of peptide binding on cell signaling, QhTERT cells expressing FGFR2c. As to conditions: 20 min. Type of series: cell-based, human. Here is the method: as §1
Background: In western blotting, separated proteins are transferred to a membrane and probed.

Series [4] deals with QhTERT cells that express FGFR2c. The series is described as follows: Competition for binding of SRR^*-Cy5.5 with unlabeled peptide, confocal microscopy. Type of series: cell-based, human. The settings on record: 30 min at 4°C, then 5 μM SRR^*-Cy5.5, 30 min at 4°C. Here is the method: Specific peptide binding to QhTERT/FGFR2c was validated on competitive inhibition with addition of unlabeled peptide. ~10^3 cells were grown to ~70% confluence on cover glass in triplicate. Unlabeled peptides at concentrations of 0, 50, 100, 150, 250, and 500 μM were incubated with the cells for 30 min at 4°C. The cells were washed and incubated with 5 μM of the target peptide for another 30 min at 4°C. The cells were washed and fixed with 4% PFA for 5 min. The cells were washed with PBS and mounted with ProLong Gold reagent containing DAPI (Invitrogen).

Series [5] is described as follows: Fluorescence spectra of Cy5.5-labeled peptides. As to conditions: 10 μM in PBS, excitation λex = 671 nm. It counts as physicochemical. An excerpt:
We synthesized the 12 amino acid sequence SRRPASFRTARE (black) and attached the fluorophore Cy5.5 (red) via a GGGSK linker (blue) on the C-terminus, hereafter SRR^*-Cy5.5, Figure 1A. Cy5.5 was chosen for photostability and high quantum yield in the near-infrared (NIR) spectrum. We used a linker to prevent steric hindrance of the peptide by the dye. We then used a structural model (1EV2), [24] […] This domain is the same in either isoform FGFR2IIIb or FGFR2IIIc. We also used this model to develop a scrambled sequence SPSRERTFRARA for a control, Figure 1C. This peptide was also labeled with Cy5.5 via a GGGSK linker, hereafter SPS^*-Cy5.5. For SPS^*-Cy5.5, we calculated Et = −277.37. […] We purified SRR^*-Cy5.5 and […] to >97% on HPLC, and measured an experimental mass-to-charge (m/z) ratio on mass spectrometry of 2385.31 for both peptides that agreed with the expected value, Supplementary Figure 3.
Figure 1 Peptide specific for FGFR2 Chemical structure is shown for 12 amino acid (aa) peptide sequence (A) SRRPASFRTARE (SRR^*) found to be specific for FGFR2, and (B) scrambled peptide SPSRERTFRARA (SPS^*) used for control. A Cy5.5 fluorophore (red) is attached via a GGGSK linker (blue) to prevent steric hindrance.

Series [6] deals with QhTERT cells that express FGFR2b. The series can be described thus: Confocal fluorescence microscopy, binding to QhTERT cells that express FGFR2b. As to conditions: 1 μM peptide, 10 min at RT; confocal, 63X. It counts as cell-based, human. The text has this: (§2) All human esophageal specimens were obtained with written, informed patient consent per approval and guidelines of the University of Michigan Institutional Review Board (IRB). Human non-dysplastic Barrett's esophagus (BE) cells immortalized with hTert (QhTERT) were obtained from the American Type Culture Collection (ATCC) and cultured in keratinocyte-serum free medium containing bovine pituitary extract and human recombinant EGF (ThermoFisher #17005042). QhTERT cells with stable expression of FGFR2b or FGFR2c were provided (DGB). We cultured these cells with keratinocyte-serum free medium containing bovine pituitary extract and human recombinant EGF (ThermoFisher #17005042) and added 1 μg/mL of puromycin-dihydrochloride (Invitrogen #A11138-03). All cells were cultured at 37°C in 5% CO2, and were passaged using 0.25% EDTA containing trypsin (Mediatech Inc). A hemocytometer was used to determine cell number. Peptide synthesis reagents were obtained from either Anaspec or AAPPTEC with the highest grade available (>99% purity) and used without further purification. Solvents and other chemical reagents were obtained from Sigma-Aldrich, unless otherwise stated.
(§3) ~10^3 QhTERT/wt, QhTERT/FGFR2b, and QhTERT/FGFR2c cells were grown on cover glass to ~80% confluence. The cells were washed with PBS 1X and incubated with 1 μM of either peptide for 10 min at RT. The cells were then washed 3X in PBS, fixed with 4% paraformaldehyde (PFA) for 5 min, washed 1X with PBS, and then mounted on glass slides with ProLong Gold reagent containing DAPI (Invitrogen). Confocal fluorescence images were collected with Cy5.5 and DAPI filters (Leica Inverted SP5X 2-Photon FLIM confocal microscopes) using a 63X oil-immersion objective. Fluorescence intensities from 3 cells in each of 3 independent images were quantified using custom Matlab (Mathworks) software.

Series [7] concerns QhTERT cells that express FGFR2c. The series is described as follows: Confocal fluorescence microscopy, binding to QhTERT cells that express FGFR2c. Type of series: cell-based, human. As to conditions: 1 μM peptide, 10 min at RT; confocal, 63X.
Excerpt: as §2, §3

The subject of series [8] is QhTERT wild-type cells. The series is described as follows: Confocal fluorescence microscopy, binding to wild-type QhTERT cells. It counts as cell-based, human. As to conditions: 1 μM peptide, 10 min at RT, 63X.
Excerpt: as §2, with “Peptide synthesis reagents were obtained from either Anaspec or AAPPTEC with the highest grade available (>99% purity) and used without further purification. Solvents and other chemical reagents were obtained from Sigma-Aldrich, unless otherwise stated.” left out
~10^3 QhTERT/wt, QhTERT/FGFR2b, and QhTERT/FGFR2c cells were grown on cover glass to ~80% confluence. […] Confocal fluorescence images were collected with Cy5.5 and DAPI filters (Leica Inverted SP5X 2-Photon FLIM confocal microscopes) using a 63X oil-immersion objective. Fluorescence intensities from 3 cells in each of 3 independent images were quantified using custom Matlab (Mathworks) software.

Series [9] concerns the target T1, FGFR2c on QhTERT cells (UniProt P21802-1 22-821).
T1 construct: fibroblast growth factor receptor 2, isoform IIIc (C-terminus of D3 encoded by exon 9), stably expressed in human QhTERT cells; also called FGFR2IIIc; isoform IIIc of FGFR2
The series can be described thus: flow cytometry on cells; apparent dissociation constant; Cy5.5-labeled peptide 0 to 200 nM in 25 nM increments in PBS, ~10^5 QhTERT/FGFR2c cells, 4°C for 1 hour, mean fluorescence intensity. As to conditions: one partner purified. Background: In flow cytometry, cells or beads pass a laser one at a time.

The mark [10] stands for this setting: FGF1 100 ng/mL, heparin 100 units/mL.

T1 sequence (P21802 22-821): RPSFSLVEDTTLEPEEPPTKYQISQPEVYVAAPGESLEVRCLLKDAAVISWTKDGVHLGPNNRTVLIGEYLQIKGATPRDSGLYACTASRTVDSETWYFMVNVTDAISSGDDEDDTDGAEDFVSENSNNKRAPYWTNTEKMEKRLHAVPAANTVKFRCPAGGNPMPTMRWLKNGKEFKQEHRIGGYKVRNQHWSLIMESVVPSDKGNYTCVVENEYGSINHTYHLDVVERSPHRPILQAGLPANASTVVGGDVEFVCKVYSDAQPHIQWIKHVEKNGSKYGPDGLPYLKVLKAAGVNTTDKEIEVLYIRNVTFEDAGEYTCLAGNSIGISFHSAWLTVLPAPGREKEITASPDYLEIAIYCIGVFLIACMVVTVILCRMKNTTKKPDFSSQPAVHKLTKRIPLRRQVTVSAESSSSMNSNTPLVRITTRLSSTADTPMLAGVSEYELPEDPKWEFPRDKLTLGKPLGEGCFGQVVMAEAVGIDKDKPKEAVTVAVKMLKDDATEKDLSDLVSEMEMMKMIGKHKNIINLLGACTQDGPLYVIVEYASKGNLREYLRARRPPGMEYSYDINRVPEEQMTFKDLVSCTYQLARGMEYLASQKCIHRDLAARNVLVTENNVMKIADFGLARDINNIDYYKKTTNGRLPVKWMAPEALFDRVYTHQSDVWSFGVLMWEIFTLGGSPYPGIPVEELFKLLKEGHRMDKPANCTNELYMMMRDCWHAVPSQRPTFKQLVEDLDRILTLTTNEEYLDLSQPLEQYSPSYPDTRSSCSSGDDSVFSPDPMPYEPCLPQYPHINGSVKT

As for “ASYNYDA [empiric peptide labeled with FITC, 7 amino acid peptide ASYNYDA that was labeled with FITC]”, in series [1] (included 28 flat lesions), the “positive predictive value, early neoplasia detection” value is recorded as 96% and the “specificity, early neoplasia detection” value is reported as 94%. Also, the time of binding in series [1] is recorded as not above 5 min.

“FGF1: FGF1 (#2232-FA-025, R&D systems), positive control [reference compound]”: the “phosphorylation of FGFR2 (p-FGFR), AKT (p-AKT) and ERK (p-ERK), positive control” value in series [2] (setting [10]) is “to some extent”; in [3] (setting [10]) it was “strong phosphorylation activity”.

Take “SPSRERTFRARA [SPS^*, unlabeled scrambled peptide … used for control]”: in series [4] (unlabeled SPS^* at any concentration (0, 50, 100, 150, 250, 500 μM)), the “mean fluorescence intensity of SRR^*-Cy5.5 with unlabeled control peptide” value is on record as “No significant difference”.

Take SPSRERTFRARA [SPS^*-Cy5.5]: the “peak emission λem” value in series [5] is listed as 710 nm. Besides, the “cell surface fluorescence signal / binding” value in series [6], in series [7] and in series [8] was “Minimal binding” throughout.

Take “SRRPASFRTARE [SRR^*, unlabeled 12 amino acid peptide … specific for FGFR2]”: the “mean fluorescence intensity of SRR^*-Cy5.5 with unlabeled target peptide” value in [4] (unlabeled SRR^* at 50 μM and greater vs 0 μM) was “significant reduction”. Moreover, the “phosphorylation of FGFR2 (p-FGFR), AKT (p-AKT) and ERK (p-ERK)” value in series [2] (peptide at 5 or 100 μM) and in series [3] (peptide at 5 or 100 μM) was “no change in phosphorylation” throughout.

B1: SRR*-Cy5.5 (peptide)
peptide: SRRPASFRTAREGGGSK(Cy5.5)-NH2
notes: 12-residue peptide selected by phage display (Ph.D.-12 library) against FGFR2-ECD; linker on the C-terminus that carries the Cy5.5; Assembled on rink amide MBHA resin, so the C-terminus is probably an amide; also called FGFR2 peptide; source: synthetic peptide (Fmoc solid-phase synthesis, prep-HPLC, >97%)
With B1, the Kd in [9] came out at 68 nM.
